Tests used:
Type in all cases: cell-based
DU-145 = assay: SRB colorimetric cell growth inhibition assay, DU-145; settings: DU-145
Outline: (§1)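 Growth inhibition (GI), cytostatic total growth inhibition (TGI) and cytotoxic cell-kill (LC) parameters were calculated from SRB-stained cultures held under constant compound exposure, triplicates averaged.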

LoVo = assay: SRB colorimetric cell growth inhibition assay, LoVo
Outline: as §1

K-562 = assay: SRB colorimetric cell growth inhibition assay, K-562
Outline: as §1

LoVo-Dox = assay: SRB colorimetric cell growth inhibition assay, LoVo-Dox (MDR); settings: LOVO-DOX
Outline: as §1

A-549 = assay: SRB colorimetric cell growth inhibition assay, A-549
Outline: as §1

SKOV-3 = assay: SRB colorimetric cell growth inhibition assay, SKOV-3; settings: Homo sapiens
Outline: (§2)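 Sulforhodamine B colorimetric assay of cell growth and viability, mean ± SD of triplicate wells. Parameters derived: GI (growth inhibition), TGI (total growth inhibition, cytostatic) and LC (cell killing, cytotoxic).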

IGROV = assay: SRB colorimetric cell growth inhibition assay, IGROV; settings: IGROV
Outline: as §1

HT-29 = assay: SRB colorimetric cell growth inhibition assay, HT-29
Outline: as §1

LNCaP = assay: SRB colorimetric cell growth inhibition assay, LNCaP; settings: LN-caP
Outline: as §1

PANC-1 = assay: SRB colorimetric cell growth inhibition assay, PANC-1
Outline: as §1

SK-MEL-28 = assay: SRB colorimetric cell growth inhibition assay, SK-MEL-28
Outline: as §1

[1] = SRB colorimetric cell growth inhibition assay, H-MEC-1; settings: human, H-MEC-1 cells; H-MEC-1; cell killing (cytotoxic effect); read-out: LC50 H-MEC-1
Outline: as §2

H-MEC-1 = assay: as above; settings: Homo sapiens, HMEC-1, H-MEC-1
Outline: as §2

SK-BR-3 = assay: SRB colorimetric cell growth inhibition assay, SK-BR-3
Outline: as §1

IGROV-ET = assay: SRB colorimetric cell growth inhibition assay, IGROV-ET (ET-743 resistant); settings: IGROV-ET
Outline: as §1

[2] = total growth inhibition (cytostatic effect)

In the case of `COc1cc(-c2c3c4cc(OC)c(OC(=O)[C@@H](N)Cc5ccccc5)cc4oc(=O)c3n3ccc4c(OC(=O)[C@@H](N)Cc5ccccc5)c(OC)c(OC)cc4c23)ccc1OC(=O)[C@@H](N)Cc1ccccc1` [Compound 31], the GI50 (DU-145; GI=growth inhibition, read-out: GI50 DU-145) is reported as 0.301 µM, the CC50 (DU-145; cell killing (cytotoxic effect), read-out: LC50 DU-145) is reported as 7.62 µM and the “TGI DU-145” value (DU-145; [2]) is reported as 8.61E−07 Molar. It also gave a CC50 (LoVo; Homo sapiens, LoVo, LC=cell killing (cytotoxic effect), read-out: LC50 LOVO) of 7.62 µM, an IC (TGI) (LoVo; Homo sapiens, LoVo, TGI=total growth inhibition (cytostatic effect), read-out: TGI LOVO) of 5.35 µM and a GI50 (LoVo; LOVO, GI=growth inhibition, read-out: GI50 LOVO) of 1.98 µM. The CC50 (K-562; Homo sapiens, K562, K-562, LC=cell killing (cytotoxic effect), read-out: LC50 K-562) was 7.62 µM, the IC (TGI) (K-562; Homo sapiens, K562, K-562, TGI=total growth inhibition (cytostatic effect), read-out: TGI K-562) was 2.47 µM and the GI50 (K-562; K-562, GI=growth inhibition, read-out: GI50 K-562) was 0.41 µM. For the same compound, the CC50 (LoVo-Dox; Homo sapiens, LC=cell killing (cytotoxic effect), read-out: LC50 LOVO-DOX) was 7.62 µM, the IC (TGI) (LoVo-Dox; Homo sapiens, TGI=total growth inhibition (cytostatic effect), read-out: TGI LOVO-DOX) was 7.62 µM and the GI50 (LoVo-Dox; GI=growth inhibition, read-out: GI50 LOVO-DOX) was 1.49 µM. It also gave a GI50 (A-549; A-549, GI=growth inhibition, read-out: GI50 A-549) of 0.433 µM, a CC50 (A-549; Homo sapiens, A549, A-549, LC=cell killing (cytotoxic effect), read-out: LC50 A-549) of 4.6 µM and an IC (TGI) (A-549; Homo sapiens, A549, A-549, TGI=total growth inhibition (cytostatic effect), read-out: TGI A-549) of 1.42 µM. The GI50 (SKOV-3; SK-OV-3, SKOV-3, GI=growth inhibition, read-out: GI50 SKOV-3) was 0.524 µM, the LC50 (concentration causing 50% net cell killing) (SKOV-3; SK-OV-3, SKOV-3, cell killing (cytotoxic effect), read-out: LC50 SKOV-3) was 7.62 µM and the IC (TGI) (SKOV-3; SK-OV-3, SKOV-3, total growth inhibition (cytostatic effect), read-out: TGI SKOV-3) was 4.22 µM. The GI50 (IGROV; GI=growth inhibition, read-out: GI50 IGROV) was 1.26 µM, the CC50 (IGROV; cell killing (cytotoxic effect), read-out: LC50 IGROV) was 7.62 µM and the “TGI IGROV” value (IGROV; [2]) was 7.62E−06 Molar. For the same compound, the GI50 (HT-29; HT-29, GI=growth inhibition, read-out: GI50 HT-29) was 7.62 µM, the CC50 (HT-29; Homo sapiens, HT-29, HT-29, LC=cell killing (cytotoxic effect), read-out: LC50 HT-29) was 7.62 µM and the IC (TGI) (HT-29; Homo sapiens, HT-29, HT-29, TGI=total growth inhibition (cytostatic effect), read-out: TGI HT-29) was 7.62 µM. For the same compound, the CC50 (LNCaP; Homo sapiens, LNCaP, cell killing (cytotoxic effect), read-out: LC50 LN-caP) was 3.43 µM, the IC (TGI) (LNCaP; Homo sapiens, LNCaP, total growth inhibition (cytostatic effect), read-out: TGI LN-caP) was 1.45 µM and the GI50 (LNCaP; GI=growth inhibition, read-out: GI50 LN-caP) was 0.548 µM. It also gave a CC50 (PANC-1; Homo sapiens, PANC-1, PANC-1, LC=cell killing (cytotoxic effect), read-out: LC50 PANC-1) of 7.62 µM, an IC (TGI) (PANC-1; Homo sapiens, PANC-1, PANC-1, TGI=total growth inhibition (cytostatic effect), read-out: TGI PANC-1) of 7.62 µM and a GI50 (PANC-1; PANC-1, GI=growth inhibition, read-out: GI50 PANC-1) of 1.96 µM. For the same compound, the CC50 (SK-MEL-28; Homo sapiens, SK-MEL-28, MEL-28, cell killing (cytotoxic effect), read-out: LC50 MEL-28) was 7.62 µM, the GI50 (SK-MEL-28; MEL-28, GI=growth inhibition, read-out: GI50 MEL-28) was 0.482 µM and the “TGI MEL-28” value (SK-MEL-28; MEL-28, total growth inhibition (cytostatic effect)) was 7.62E−06 Molar. It also gave an LC50 (concentration giving 50% net cell killing) [1] of 0.565 µM, a GI50 (H-MEC-1; GI=growth inhibition, read-out: GI50 H-MEC-1) of 0.119 µM and an IC (TGI) (H-MEC-1; total growth inhibition (cytostatic effect), read-out: TGI H-MEC-1) of 0.26 µM. The CC50 (SK-BR-3; Homo sapiens, SK-BR-3, SK-BR-3, cell killing (cytotoxic effect), read-out: LC50 SK-BR-3) was 7.62 µM, the GI50 (SK-BR-3; SK-BR-3, GI=growth inhibition, read-out: GI50 SK-BR-3) was 1.8 µM and the “TGI SK-BR-3” value (SK-BR-3; SK-BR-3, total growth inhibition (cytostatic effect)) was 7.62E−06 Molar. The GI50 (IGROV-ET; GI=growth inhibition, read-out: GI50 IGROV-ET) was 1.39 µM, the CC50 (IGROV-ET; cell killing (cytotoxic effect), read-out: LC50 IGROV-ET) was 7.62 µM and the “TGI IGROV-ET” value (IGROV-ET; [2]) was 4.00E−06 Molar.

— patent US7396837B2, “Antitumoral analogs of lamellarins” (Pharma Mar, S.A.U., priority 2002, dated 2008)
